The text below walks through data of patent publication US12624012B2, “14-chloro-β-elemene nitric oxide donor derivative and preparation method and use thereof” (HANGZHOU NORMAL UNIVERSITY, priority 2021, dated 2026).

Experiment [1] can be described thus: In vitro NO release test (incubation with L-cysteine, OD at 550 nm). Conditions: 100 μM solution with cysteine solution, 37° C. On the procedure:
• (1) Sodium nitrite solutions with different concentrations were prepared. A calibration curve was drawn. • (2) The sample was treated. A 100 μM solution was prepared. 2.5 mL of the prepared compound solution and 2.5 mL of the cysteine solution were taken and incubated at 37° C. for 120 min, and the resulting mixture was sampled at different time points. • (3) A blank hole and a standard hole were set. 160 μL of the sample was collected and mixed evenly with 0.08 mL of a developer and stood at 37° C. for 15 min. At λ=550 nm, the OD value of absorbance was measured by the enzyme marker. The NO release levels were obtained by substituting the value into the standard curve.

Experiment [2] concerns SW620. The experiment is described as follows: In vitro anti-tumor activity evaluation test (CCK-8), SW620. As to conditions: for inhibition at 1 µM: read-out: Inhibitory rates against tumor cell lines; for IC50: read-out: IC50 against different tumor cell lines. Format: cell-based, human. The procedure:
(§1) • (1) Cells were digested and counted. Cell suspensions (H520, SW620 5.0×10^4 cells/mL, and U87MG 3.5×10^4 cells/mL) were prepared. 100 μL of cell suspension was added to each well of a 96-well cell culture plate. • (2) The 96-well cell culture plate was incubated in a 37° C., 5%, CO2 incubator for 24 h. • (3) A drug was diluted with a culture medium to a desired working solution concentration. 100 μL of the corresponding drug-containing culture medium was added to each well. At the same time, a negative control group and a positive control group were set up. • (4) The 96-well cell culture plate was incubated in a 37° C., 5%, CO2 incubator for 72 h. • (5) The 96-well plate was stained with CCK-8, and at λ=450 nm, the OD value was determined. • 1) 10 μL of CCK-8 was added to each well. The culture plate continued to be incubated in the incubator for 2-3 h. • 2) The culture plate was rocked for 10 min to gently mix and remove air bubbles from the 96-well plate. • 3) At λ=450 nm, the OD value of each well was read by the enzyme marker, and the inhibitory rates were calculated. • (6) According to the following equation (1), the growth inhibitory rate of the tumor cells was obtained. The obtained results were substituted into an IC 50 calculation software SPSS17.0 to find out the IC50 value.

In experiment [3] the test system is U87MG. Kind of experiment: In vitro anti-tumor activity evaluation test (CCK-8), U87MG. Format: cell-based, human. As to conditions: 72 h; for inhibition at 1 µM: read-out: Inhibitory rates against tumor cell lines; for IC50: read-out: IC50 against different tumor cell lines. On the procedure: as §1
For experiment [4], the system named is NCI-H520. Kind of experiment: In vitro anti-tumor activity evaluation test (CCK-8), NCI-H520. Format: cell-based, human. As to conditions: for inhibition at 1 µM: read-out: Inhibitory rates against tumor cell lines; for IC50: read-out: IC50 against different tumor cell lines. The procedure:
as §1

[5] abbreviates: Homo sapiens, SW-620, SW620, 1 μM, 72 h.
Setting [6] is: Homo sapiens, U-87 MG, U87MG, 1 μM.
The mark [7] stands for this setting: Homo sapiens, NCI-H520, 1 μM, 72 h.

The structures appear in SMILES notation. Read-outs that look alike come from different tables or passages of the source.

For the molecule `C=C[C@]1(C)CC[C@@H](C(=C)CN(C)CCOC(=O)CCC(=O)OCCOc2no[n+]([O-])c2S(=O)(=O)c2ccccc2)C[C@H]1C(=C)CCl` [Example 1, 4-(2-((4-(2-((2-((1R,3R,4S)-3-(3-chloroprop-1-en-2-yl)-4-methyl-4-vinylcyclohexyl))(methyl)amino)ethyoxyl)-4-oxobutanoyl)oxy)ethyoxyl)-3-(phenylsulfonyl)-1,2,5-oxadiazole 2-oxide], the NO-release concentrations in experiment [1] (5 min) is 1.73 µM; in experiment [1] (10 min) it was 2.31 µM; in experiment [1] (20 min) it was 2.90 µM; in experiment [1] (30 min), 4.04 µM; in experiment [1] (60 min), 7.76 µM; in experiment [1] (90 min), 12.67 µM. The molecule further came in with an NO-release concentrations in experiment [1] (120 min) of 17.21 µM. Further, the inhibition at 1 µM amounted to 30.7 ± 3.5% in experiment [2] (setting [5]), 39.5 ± 2.1% in experiment [3] (setting [6]) and 28.8 ± 0.8% in experiment [4] (setting [7]).

For the molecule `C=C[C@]1(C)CC[C@@H](C(=C)CN2CCCC(COC(=O)CCC(=O)OCC#CCOc3no[n+]([O-])c3S(=O)(=O)c3ccccc3)C2)C[C@H]1C(=C)CCl` (stereo partly drawn) [Example 19, 4-((4-((4-((1-(2-((1R,3R,4S)-3-(3-chloroprop-1-en-2-yl)-4-methyl-4-vinylcyclohexyl)allyl)piperidin-3-yl)methoxyl)-4-oxobutanoyl)oxy)but-2-yn-1-yl)oxy)-3-(phenylsulfonyl)-1,2,5-oxadiazole 2-oxide], the NO-release concentrations in experiment [1] (5 min) came out at 13.76 µM; in experiment [1] (10 min), 15.87 µM; in experiment [1] (20 min) it was 19.21 µM; in experiment [1] (30 min), 22.88 µM; in experiment [1] (60 min) it was 34.60 µM; in experiment [1] (90 min) it was 48.73 µM. Also, in experiment [1] (120 min), the NO-release concentrations was determined as 56.52 µM. The inhibition at 1 µM in experiment [2] (setting [5]) is 40.6 ± 2.8%; in experiment [3] (setting [6]) it was 41.9 ± 1.1%; in experiment [4] (setting [7]), 46.1 ± 2.7%. Besides, the IC50 in experiment [3] (Homo sapiens, U-87 MG, U87MG) stood at 985 ± 12 nM.

For the molecule `C=C[C@]1(C)CC[C@@H](C(=C)CN(CCOC(=O)CCC(=O)OCCOc2no[n+]([O-])c2S(=O)(=O)c2ccccc2)C(C)C)C[C@H]1C(=C)CCl` [Example 5, 4-(2-((4-(2-((2-((1R,3R,4S)-3-(3-chloroprop-1-en-2-yl)-4-methyl-4-vinylcyclohexyl)allyl)(isopropyl)amino)ethyoxyl)-4-oxobutanoyl)oxy)ethyoxyl)-3-(phenylsulfonyl)-1,2,5-oxadiazole 2-oxide], the NO-release concentrations in experiment [1] (5 min) came out at 0.59 µM; in experiment [1] (10 min), 41.61 µM; in experiment [1] (20 min) it was 48.58 µM; in experiment [1] (30 min), 2.57 µM; in experiment [1] (60 min), 5.58 µM; in experiment [1] (90 min), 9.22 µM. In experiment [1] (120 min), this molecule registered an NO-release concentrations of 13.64 µM. The inhibition at 1 µM in experiment [2] (setting [5]) was 33 ± 2.5%; in experiment [3] (setting [6]), 47.1 ± 0.9%; in experiment [4] (setting [7]) it was 44.2 ± 1.3%. Also, the IC50 in experiment [3] (Homo sapiens, U-87 MG, U87MG) worked out at 369 ± 25 nM.

Turning to `C=C[C@]1(C)CC[C@@H](C(=C)CN(CCOC(=O)CCCC(=O)OCCOc2no[n+]([O-])c2S(=O)(=O)c2ccccc2)C(C)C)C[C@H]1C(=C)CCl` [Example 6], the NO-release concentrations in experiment [1] (5 min) was determined as 3.38 µM; in experiment [1] (10 min), 5.87 µM; in experiment [1] (20 min), 4.62 µM; in experiment [1] (30 min), 6.22 µM; in experiment [1] (60 min), 9.97 µM; in experiment [1] (90 min), 15.53 µM. The NO-release concentrations in experiment [1] (120 min) is 20.60 µM. Further, the inhibition at 1 µM in experiment [2] (setting [5]) amounted to 35.6 ± 2.8%; in experiment [3] (setting [6]) it was 54.3 ± 1.3%; in experiment [4] (setting [7]) it was 43.4 ± 1.5%. Further, the IC50 in experiment [3] (Homo sapiens, U-87 MG, U87MG) stood at 366 ± 19 nM.

With `C=C[C@]1(C)CC[C@@H](C(=C)CN2CCN(CCOC(=O)CCC(=O)OCCOc3no[n+]([O-])c3S(=O)(=O)c3ccccc3)CC2)C[C@H]1C(=C)CCl` [Example 21, 4-(2-((4-(2-(4-(2-((1R,3R,4S)-3-(3-chloroprop-1-en-2-yl)-4-methyl-4-vinylcyclohexyl)allyl)piperazin-1-yl)ethyoxyl)-4-oxobutanoyl)oxy)ethyoxyl)-3-(phenylsulfonyl)-1,2,5-oxadiazole 2-oxide], the NO-release concentrations amounted to 0.08 µM in experiment [1] (5 min); 0.41 µM in experiment [1] (10 min); 0.99 µM in experiment [1] (20 min); 1.64 µM in experiment [1] (30 min); 2.98 µM in experiment [1] (60 min); 6.43 µM in experiment [1] (90 min). The molecule also displayed an NO-release concentrations in experiment [1] (120 min) of 10.20 µM. The inhibition at 1 µM stood at 43.6 ± 2.5% in experiment [2] (setting [5]), 52.6 ± 1% in experiment [3] (setting [6]) and 47.3 ± 2.6% in experiment [4] (setting [7]). In addition, the IC50 in experiment [3] (Homo sapiens, U-87 MG, U87MG) stood at 926 ± 52 nM.

Consider `C=C[C@]1(C)CC[C@@H](C(=C)CN2CCCC(COC(=O)CCCC(=O)OCC#CCOc3no[n+]([O-])c3S(=O)(=O)c3ccccc3)C2)C[C@H]1C(=C)CCl` (stereo partly drawn) [Example 20, 4-((4-((5-((1-(2-((1R,3R,4S)-3-(3-chloroprop-1-en-2-yl)-4-methyl-4-vinylcyclohexyl)allyl)piperidin-3-yl)methoxyl)-5-oxopentanoyl)oxy)but-2-yn-1-yl)oxy)-3-(phenylsulfonyl)-1,2,5-oxadiazole 2-oxide], for which the NO-release concentrations in experiment [1] (5 min) was 15.19 µM; in experiment [1] (10 min) it was 17.57 µM; in experiment [1] (20 min), 21.33 µM; in experiment [1] (30 min), 25.52 µM; in experiment [1] (60 min), 39.29 µM; in experiment [1] (90 min) it was 58.12 µM. Besides, in experiment [1] (120 min), the NO-release concentrations amounted to 77.28 µM. For the same molecule, the results for the inhibition at 1 µM in experiment [2] (setting [5]), in experiment [3] (setting [6]) and in experiment [4] (setting [7]) were 43.2 ± 1.8%, 53.9 ± 0.6% and 44.5 ± 2.4%, respectively. For the same molecule, the IC50 in experiment [3] (Homo sapiens, U-87 MG, U87MG) came to 1110 ± 52 nM; in experiment [4] (Homo sapiens, NCI-H520, 72 h), 1180 ± 66 nM.

With `C=CC1(C)CCC(C(=C)CCl)CC1C(=C)CCl` (stereo not drawn) [13,14-dichloro-β-elemene, reference compound], the “Inhibitory rates against tumor cell lines” value is recorded as 3.3 ± 1.0% in experiment [2] (SW620, 1 μM, 72 h); 3.5 ± 1.0% in experiment [3] (U87MG, 1 μM); 0.9 ± 3.0% in experiment [4] (NCI-H520, 1 μM, 72 h). For the same molecule, the IC50 in experiment [2] (SW620, 72 h) is more than 100000 nM; in experiment [3] (U87MG) it was more than 100000 nM; in experiment [4] (NCI-H520, 72 h), more than 100000 nM.

For `C=C[C@]1(C)CC[C@@H](C(=C)CN(CCOC(=O)CCC(=O)OCC#CCOc2no[n+]([O-])c2S(=O)(=O)c2ccccc2)C(C)C)C[C@H]1C(=C)CCl` [Example 7, 4-((4-((4-(2-((2-((1R,3R,4S)-3-(3-chloroprop-1-en-2-yl)-4-methyl-4-vinylcyclohexyl)allyl)(isopropyl)amino)ethyoxyl)-4-oxobutanoyl)oxy)but-2-yn-1-yl)oxy)-3-(phenylsulfonyl)-1,2,5-oxadiazole 2-oxide], the IC50 came to 1110 ± 115 nM in experiment [2] (Homo sapiens, SW-620, 72 h) and 882 ± 34 nM in experiment [3] (Homo sapiens, U-87 MG). For the same molecule, the inhibition at 1 µM was determined as 46.6 ± 1.2% in experiment [2] (Homo sapiens, SW-620, 72 h); 56.7 ± 0.9% in experiment [3] (Homo sapiens, U-87 MG); 44.5 ± 2.2% in experiment [4] (Homo sapiens, NCI-H520, 72 h).

As for `C=C[C@]1(C)CC[C@@H](C(=C)CN(CCOC(=O)CCCC(=O)OCC#CCOc2no[n+]([O-])c2S(=O)(=O)c2ccccc2)C(C)C)C[C@H]1C(=C)CCl` [Example 8], the NO-release concentrations amounted to 10.55 µM in experiment [1] (5 min); 12.34 µM in experiment [1] (10 min); 15.52 µM in experiment [1] (20 min); 18.95 µM in experiment [1] (30 min); 29.50 µM in experiment [1] (60 min); 43.00 µM in experiment [1] (90 min). Further, in experiment [1] (120 min), the NO-release concentrations amounted to 55.33 µM. Moreover, the inhibition at 1 µM worked out at 10.8 ± 3.2% in experiment [2] (setting [5]), 4.5 ± 1% in experiment [3] (setting [6]) and 5.6 ± 1.6% in experiment [4] (setting [7]).

By IC50 is commonly meant the concentration that gives 50% inhibition.
